Source: patent publication US9085555B2, “Complement pathway modulators and uses thereof” (priority 2011, dated 2015)

What follows are compounds tested against Factor D (Homo sapiens (Human), UniProt P00746) (assay: biochemical). Conditions: not given.
Type: biochemical

Factor D, sequence (P00746 26-253): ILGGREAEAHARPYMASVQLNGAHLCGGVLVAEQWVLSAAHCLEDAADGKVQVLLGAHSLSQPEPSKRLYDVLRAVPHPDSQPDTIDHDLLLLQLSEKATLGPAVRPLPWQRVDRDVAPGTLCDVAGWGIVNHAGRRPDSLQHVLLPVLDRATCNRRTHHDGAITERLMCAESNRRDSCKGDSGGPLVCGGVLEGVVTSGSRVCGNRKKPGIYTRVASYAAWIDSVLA

SMILES | IC50
NC(=O)n1cc(CC(=O)N2C[C@@H](N)C[C@H]2C(=O)NCc2cccc(Cl)c2F)c2ccccc21 [Example 468, 3-{2-[(2S,4S)-4-Amino-2-(3-chloro-2-fluoro-benzylcarbamoyl)-pyrrolidin-1-yl]-2-oxo-ethyl}-indole-1-carboxylic acid amide] | 0.35 µM

Same assay, conditions: read-out: IC50

SMILES | IC50
NC(=O)n1cc(NC(=O)N2CCC[C@H]2C(=O)Nc2cc(-c3ccccc3)no2)c2ccccc21 [Example 440, (S)-Pyrrolidine-1,2-dicarboxylic acid 1-[(1-carbamoyl-1H-indol-3-yl)-amide]2-[(3-phenyl-isoxazol-5-yl)-amide]] | 1.05 µM
NC(=O)n1cc(CC(=O)N2CCC[C@H]2C(=O)Nc2cccc(OC(F)(F)F)c2)c2ccccc21 [Example 441, 3-{2-[(S)-2-(3-trifluoromethoxy-phenylcarbamoyl)-pyrrolidin-1-yl]-2-oxo-ethyl}-indole-1-carboxylic acid amide] | 5.62 µM
NC(=O)n1cc(CC(=O)N2C[C@H](F)C[C@H]2C(=O)Nc2cccc(OC(F)(F)F)c2F)c2ccccc21 [Example 442, 3-{2-[(2S,4R)-4-Fluoro-2-(2-fluoro-3-trifluoromethoxy-phenylcarbamoyl)-pyrrolidin-1-yl]-2-oxo-ethyl}-indole-1-carboxylic acid amide] | 0.85 µM
NC(=O)n1cc(CC(=O)N2C[C@@H]3C[C@@H]3[C@H]2C(=O)N[C@H](CO)c2cccc(Cl)c2F)c2ccccc21 [Example 443, 3-(2-{(1S,2S,5R)-2-[(S)-1-(3-Chloro-2-fluoro-phenyl)-2-hydroxy-ethylcarbamoyl]-3-azabicyclo[3.1.0]hex-3-yl}-2-oxo-ethyl)-indole-1-carboxylic acid amide] | 4.47 µM
NC(=O)n1cc(CC(=O)N2CC[C@@H](O)[C@H]2C(=O)NCc2cccc(Cl)c2F)c2ccccc21 [Example 444, 3-{2-[(2S,3R)-2-(3-Chloro-2-fluoro-benzylcarbamoyl)-3-hydroxy-pyrrolidin-1-yl]-2-oxo-ethyl}-indole-1-carboxylic acid amide] | 0.243 µM
CN(C)C[C@@]1(F)C[C@@H](C(=O)NCc2cccc(Cl)c2F)N(C(=O)Cc2cn(C(N)=O)c3ccccc23)C1 [Example 445, 3-{2-[(2S,4S)-2-(3-Chloro-2-fluoro-benzylcarbamoyl)-4-dimethylaminomethyl-4-fluoro-pyrrolidin-1-yl]-2-oxo-ethyl}-indole-1-carboxylic acid amide] | 0.58 µM
NC(=O)n1cc(CC(=O)N2[C@@H]3C[C@@H]3C[C@H]2C(=O)NCc2cccc(Cl)c2F)c2ccccc21 [Example 446, 3-{2-[(1R,3S,5R)-3-(3-Chloro-2-fluoro-benzylcarbamoyl)-2-aza-bicyclo[3.1.0]hex-2-yl]-2-oxo-ethyl}-indole-1-carboxylic acid amide] | 0.016 µM
NC(=O)n1cc(CC(=O)N2C[C@H](F)C[C@H]2C(=O)NCc2cccc(Cl)c2F)c2ccccc21 [Example 448, 3-{2-[(2S,4R)-2-(3-Chloro-2-fluoro-benzylcarbamoyl)-4-fluoro-pyrrolidin-1-yl]-2-oxo-ethyl}-indole-1-carboxylic acid amide] | 0.026 µM
NC(=O)n1cc(CC(=O)N2[C@@H]3C[C@@H]3C[C@H]2C(=O)N[C@H](CO)c2cccc(Cl)c2F)c2ccccc21 [Example 449, 3-(2-{(1R,3S,5R)-3-[(S)-1-(3-Chloro-2-fluoro-phenyl)-2-hydroxy-ethylcarbamoyl]-2-aza-bicyclo[3.1.0]hex-2-yl}-2-oxo-ethyl)-indole-1-carboxylic acid amide] | 0.051 µM
NC(=O)n1cc(CC(=O)N2CCS[C@H]2C(=O)NCc2cccc(Cl)c2F)c2ccccc21 [Example 450, 3-{2-[(S)-2-(3-Chloro-2-fluoro-benzylcarbamoyl)-thiazolidin-3-yl]-2-oxo-ethyl}-indole-1-carboxylic acid amide] | 0.025 µM
NC(=O)n1cc(CC(=O)N2C[C@@](F)(CO)C[C@H]2C(=O)NCc2cccc(Cl)c2F)c2ccccc21 [Example 451, 3-{2-[(2S,4R)-2-(3-Chloro-2-fluoro-benzylcarbamoyl)-4-fluoro-4-hydroxymethyl-pyrrolidin-1-yl]-2-oxo-ethyl}-indole-1-carboxylic acid amide] | 0.09 µM
COc1ccc2c(c1)c(CC(=O)N1C3CC3C[C@H]1C(=O)NCc1cccc(Cl)c1F)cn2C(N)=O (stereo partly drawn) [Example 452, 3-{2-[(1R,3S,5R)-3-(3-Chloro-2-fluoro-benzylcarbamoyl)-2-aza-bicylo[3.1.0]hex-2-yl]-2-oxo-ethyl}-5-methoxy-indole-1-carboxylic acid amide] | 0.015 µM
NC(=O)n1cc(CC(=O)N2[C@@H]3C[C@@H]3C[C@H]2C(=O)NCc2cccc(Cl)c2F)c2cc(OCCO)ccc21 [Example 453, 3-{2-[(1R,3S,5R)-3-(3-Chloro-2-fluoro-benzylcarbamoyl)-2-aza-bicyclo[3.1.0]hex-2-yl]-2-oxo-ethyl}-5-(2-hydroxy-ethoxy)-indole-1-carboxylic acid amide] | 0.013 µM
COC[C@@]12C[C@@H](C(=O)NCc3cccc(Cl)c3F)N(C(=O)Cc3cn(C(N)=O)c4ccccc34)[C@@H]1C2 [Example 454, 3-{2-[(1R,3S,5S)-3-(3-Chloro-2-fluoro-benzylcarbamoyl)-5-methoxymethyl-2-aza-bicyclo[3.1.0]hex-2-yl]-2-oxo-ethyl}-indole-1-carboxylic acid amide] | 0.103 µM
NC(=O)n1cc(CC(=O)N2[C@@H]3C[C@@H]3C[C@H]2C(=O)Nc2cccc(OC(F)(F)F)c2)c2cc(OCCO)ccc21 [Example 455, 5-(2-Hydroxy-ethoxy)-3-{2-oxo-2-[(1R,3S,5R)-3-(3-trifluoromethoxy-phenylcarbamoyl)-2-aza-bicyclo[3.1.0]hex-2-yl]-ethyl}-indole-1-carboxylic acid amide] | 0.767 µM
NC(=O)n1cc(CC(=O)N2[C@@H]3C[C@@H]3C[C@H]2C(=O)NCc2ccc(Cl)s2)c2ccccc21 [Example 456, 3-(2-{(1R,3S,5R)-3-[(5-Chloro-thiophen-2-ylmethyl)-carbamoyl]-2-aza-bicyclo[3.1.0]hex-2-yl}-2-oxo-ethyl)-indole-1-carboxylic acid amide] | 0.085 µM
NC(=O)n1cc(CC(=O)N2[C@@H]3C[C@@H]3C[C@H]2C(=O)N[C@H](CCO)c2cccc(Cl)c2F)c2ccccc21 [Example 457, 3-(2-{(1R,3S,5R)-3-[(R)-1-(3-Chloro-2-fluoro-phenyl)-3-hydroxy-propylcarbamoyl]-2-azabicyclo[3.1.0]hex-2-yl}-2-oxo-ethyl)-indole-1-carboxylic acid amide] | 0.107 µM
CN(C)C[C@@H](NC(=O)[C@@H]1C[C@H]2C[C@H]2N1C(=O)Cc1cn(C(N)=O)c2ccccc12)c1cccc(Cl)c1F [Example 458, 3-(2-{(1R,3S,5R)-3-[(S)-1-(3-Chloro-2-fluoro-phenyl)-2-dimethylamino-ethylcarbamoyl]-2-aza-bicyclo[3.1.0]hex-2-yl}-2-oxo-ethyl)-indole-1-carboxylic acid amide] | 0.169 µM
C[C@@]1(F)C[C@@H](C(=O)NCc2cccc(Cl)c2F)N(C(=O)Cc2cn(C(N)=O)c3ccc(OCCO)cc23)C1 [Example 459, 3-{2-[(2S,4R)-2-(3-Chloro-2-fluoro-benzylcarbamoyl)-4-fluoro-4-methyl-pyrrolidin-1-yl]-2-oxo-ethyl)-5-(2-hydroxy-ethoxy)-indole-1-carboxylic acid amide] | 0.211 µM
NC(=O)n1cc(CC(=O)N2C[C@H](F)C[C@H]2C(=O)NCc2cccc(Cl)c2F)c2cc(F)ccc21 [Example 460, 3-{2-[(2S,4R)-2-(3-Chloro-2-fluoro-benzylcarbamoyl)-4-fluoro-pyrrolidin-1-yl]-2-oxo-ethyl}-5-fluoro-indole-1-carboxylic acid amide] | 0.02 µM
NC(=O)n1cc(CC(=O)N2CCS[C@H]2C(=O)NCc2cccc(Cl)c2F)c2cc(OCCO)ccc21 [Example 462, 3-{2-[(S)-2-(3-Chloro-2-fluoro-benzylcarbamoyl)-thiazolidin-3-yl]-2-oxo-ethyl}-5-(2-hydroxy-ethoxy)-indole-1-carboxylic acid amide] | 0.075 µM
NC(=O)n1cc(CC(=O)N2C[C@H]3C[C@H]3[C@H]2C(=O)N[C@H](CO)c2cccc(Cl)c2F)c2ccccc21 [Example 463, 3-(2-{(1R,2S,5S)-2-[(S)-1-(3-Chloro-2-fluoro-phenyl)-2-hydroxy-ethylcarbamoyl]-3-azabicyclo[3.1.0]hex-3-yl}-2-oxo-ethyl)-indole-1-carboxylic acid amide] | 3.11 µM
COC[C@@H](NC(=O)[C@@H]1C[C@H]2C[C@H]2N1C(=O)Cc1cn(C(N)=O)c2ccccc12)c1cccc(Cl)c1F [Example 464, 3-(2-{(1R,3S,5R)-3-[(S)-1-(3-Chloro-2-fluoro-phenyl)-2-methoxy-ethylcarbamoyl]-2-aza-bicyclo[3.1.0]hex-2-yl}-2-oxo-ethyl)-indole-1-carboxylic acid amide] | 0.254 µM
NC(=O)n1cc(CC(=O)N2C[C@H](F)[C@@H](N)[C@H]2C(=O)NCc2cccc(Cl)c2F)c2ccccc21 [Example 466, 3-{2-[(2S,3S,4S)-3-Amino-2-(3-chloro-2-fluoro-benzylcarbamoyl)-4-fluoro-pyrrolidin-1-yl]-2-oxo-ethyl}-indole-1-carboxylic acid amide] | 0.043 µM
NC(=O)n1cc(CC(=O)N2[C@H](C(=O)NCc3cccc(Cl)c3F)C[C@@]3(CO)C[C@@H]23)c2ccccc21 [Example 467, 3-{2-[(1R,3S,5S)-3-(3-Chloro-2-fluoro-benzylcarbamoyl)-5-hydroxymethyl-2-aza-bicyclo[3.1.0]hex-2-yl]-2-oxo-ethyl}-indole-1-carboxylic acid amide] | 0.047 µM
NC(=O)n1cc(CC(=O)N2NCCC2C(=O)NCc2cccc(Cl)c2)c2ccccc21 (stereo not shown) [Example 469, 3-{2-[5-(3-Chloro-benzylcarbamoyl)-pyrazolidin-1-yl]-2-oxo-ethyl}-indole-1-carboxylic acid amide] | 3.35 µM
NC[C@@]1(F)C[C@@H](C(=O)NCc2cccc(Cl)c2F)N(C(=O)Cc2cn(C(N)=O)c3ccccc23)C1 [Example 470, 3-{2-[(2S,4S)-4-Aminomethyl-2-(3-chloro-2-fluoro-benzylcarbamoyl)-4-fluoro-pyrrolidin-1-yl]-2-oxo-ethyl}-indole-1-carboxylic acid amide] | 0.25 µM
